{
  "source": "patent US20110230431A1",
  "about": "“FOSFOMYCIN/TOBRAMYCIN COMBINATIONS FOR THE TREATMENT AND PREVENTION OF OPHTHALMIC, OTOLOGICAL AND DERMATOLOGICAL INFECTIONS” (Gilead Sciences, Inc., priority 2008, published 2011)",
  "key": {"[1]": {"test_system": "P. aeruginosa", "assay": "MIC by agar plate dilution method (CLSI)", "type": "cell-based, Pseudomonas aeruginosa", "text": "(§1) P. aeruginosa strains isolated from patients with cystic fibrosis (CF) were obtained from Children's Hospital and Regional Medical Center (Seattle, Wash.). Clinical isolates of Escherichia coli and Staphylococcus aureus were obtained from The Jones Group Laboratories (JMI; North Liberty, Iowa) and The Clinical Microbiology Institute (CMI; Wilsonville, Oreg.). P. aeruginosa 27853, S. aureus 29213, and E. coli 25922 served as quality control strains^1 and were obtained from The America Type Culture Collection (ATCC; Manassas, Va.). P. aeruginosa ATCC 27853, a fosfomycin and tobramycin susceptible strain, was used in macromolecular biosynthesis and tobramycin uptake experiments. Stock cultures were maintained at −80° C. in Cation-Adjusted Mueller-Hinton Broth (CAMHB) (Remel; Lenexa, Kans.) supplemented with 20% glycerol (VWR: West Chester, Pa.). Cultures for routine use were grown on tryptic soy agar plates+5% sheeps blood (PML Microbiologicals Inc.; Wilsonville, Oreg.) and stored at 4° C.\n(§2) MICs were determined by the agar plate dilution method according to CLSI guidelines (National Committee for Clinical Laboratory Standards. M7-A6. 6th ed. Villanova (Pa.): NCCLS, 2003; M100-S14. Villanova (Pa.): NCCLS, 2004)."}, "[2]": {"test_system": "Cell Wall Synthesis in P. aeruginosa ATCC 27853", "assay": "Macromolecular biosynthesis: 3H-N-acetyl-D-glucosamine incorporation", "type": "cell-based, Pseudomonas aeruginosa", "conditions": "at 2 h relative to no-drug control, single experiment", "method": "(§3) Picataway, N.J.) and N-acetyl-D-Glucosamine (^3H-NAG) (GE Healthcare Bio-Sciences), respectively (Baum, E Z, Antimicrob Agents Chernother 2001; 45 (11): 3182-3188). A single colony of P. aeruginosa ATCC 27853 was inoculated into 10 mL of CAMHB and incubated for 16 h, at 37° C., 200 rpm in a shaking water bath. […] At various time points, 100 μl aliquots (triplicate) of culture were removed and added to 100 μl of 20% TCA (VWR) in 96-well flat bottom trays (VWR). Plates were incubated on crushed ice for 60 min to precipitate the incorporated ^3H-precursors. Samples were harvested onto glass fibre filters (GFC) (PerkinElmer; Waltham, Mass.). Filters were washed two times with 35 mL of normal saline to remove unincorporated isotope followed by one wash with 35 mL of 90% ETOH (VWR). Filters were dried under a lamp for 1 h to reduce remaining moisture and then sealed in bags containing 5 mL of scintillation cocktail (Betaplate Scint; PerkinElmer). Counts per minute (CPM) were determined using a Wallac MicroBeta Trilux (PerkinElmer). Mean CPM±standard deviation (SD) were determined for each treatment group. Background counts consisting of a media-only sample were subtracted from the no-drug and antibiotic treatment groups. The percent inhibition of incorporation was determined relative to the no-drug controls. The activities of the three drugs were compared by calculating the time to 50% inhibition (T1/2), and statistical differences at each time point were evaluated by the Analysis of Variance (ANOVA; GraphPad Prisma software package 3.03; GraphPad Software, Inc., San Diego, Calif.). Each curve represents 4 replicate experiments, each time point performed in triplicate."}, "[3]": {"test_system": "E. coli", "type": "cell-based, Escherichia coli", "method": "(§4) Development of resistance after a single exposure to antibiotic was determined for both clinical and reference isolates of P. aeruginosa, S. aureus, and E. coli. Late Log-phase cultures were centrifuged at 1,400×g at room temperature for 20 min and the cell pellets resuspended in CAMHB. […] The culture plates were incubated at 37° C. for 48 h and the number of colonies on each plate was enumerated manually. The spontaneous mutation frequency (SMF) resulting in antibiotic resistance was calculated by dividing the number of bacteria growing at the defined antibiotic concentration by the number of bacteria in the inoculum (Martinex, J L, Antimicrob Agents Chemother 2000; 44 (1):1771-1777)."}, "[4]": {"test_system": "E. coli", "assay": "MIC by agar plate dilution method (CLSI)", "type": "cell-based, Escherichia coli", "text": "as §1, §2"}, "[5]": {"test_system": "P. aeruginosa ATCC 27853", "assay": "Time-kill experiments in CAMHB with 2% mucin", "type": "cell-based, Pseudomonas aeruginosa", "method": "Time-kill experiments were performed according to a modified CLSI method (National Committee for Clinical Laboratory Standards. M-26A. Villanova (Pa.): NCCLS, 1999). […] Bacterial cultures and antibiotic(s) were incubated at 37° C. in a shaking water bath (200 rpm) and killing activity assessed at 0, 1, 2, 4, 6 and 24 h. Antibiotics that reduced the original inoculum by ≧3-Log10 were considered bactericidal. Antibiotics that reduced the original inoculum by ≦2-Log10 were considered bacteriostatic."}, "[6]": {"test_system": "P. aeruginosa", "type": "cell-based, Pseudomonas aeruginosa", "method": "as §4"}, "[7]": {"test_system": "Protein Synthesis in P. aeruginosa ATCC 27853", "assay": "Macromolecular biosynthesis: 3H-amino acid incorporation", "type": "cell-based, Pseudomonas aeruginosa", "conditions": "for % Inhibition Protein: at 2 h relative to no-drug control, single experiment", "method": "as §3"}},
  "note": "Read-outs that look alike come from different tables or passages of the source.",
  "data": [
    {"substance": "tobramycin sulfate", "values": [
      {"measurement": "MIC", "setting": "[1]; P. aeruginosa ATCC 27853", "result": 0.5, "unit": "mg/L"},
      {"measurement": "MIC", "setting": "[1]; P. aeruginosa C002", "result": 0.5, "unit": "mg/L"},
      {"measurement": "MIC", "setting": "[1]; P. aeruginosa C003", "result": 0.5, "unit": "mg/L"},
      {"measurement": "MIC", "setting": "[1]; P. aeruginosa C013", "result": 0.5, "unit": "mg/L"},
      {"measurement": "MIC", "setting": "[1]; P. aeruginosa C014", "result": 0.5, "unit": "mg/L"},
      {"measurement": "% Inhibition Cell Wall", "setting": "[2]; 0.8 μg/mL", "result": 4, "unit": "%"},
      {"measurement": "% Inhibition Cell Wall", "setting": "[2]; 1.6 μg/mL", "result": 10, "unit": "%"},
      {"measurement": "% Inhibition Cell Wall", "setting": "[2]; 3.2 μg/mL", "result": 36, "unit": "%"},
      {"measurement": "Frequency of Resistance 4× MIC", "setting": "[3]; E. coli ATCC 25922, 4× MIC", "result": "2.5 × 10^−6"},
      {"measurement": "Frequency of Resistance 8× MIC", "setting": "[3]; E. coli ATCC 25922, 8× MIC", "result": "1.5 × 10^−7"},
      {"measurement": "Frequency of Resistance 16× MIC", "setting": "[3]; E. coli ATCC 25922, 16× MIC", "result": "8.7 × 10^−8"},
      {"measurement": "Frequency of Resistance 4× MIC", "setting": "[3]; E. coli C032, 4× MIC", "result": "1.3 × 10^−6"},
      {"measurement": "Frequency of Resistance 8× MIC", "setting": "[3]; E. coli C032, 8× MIC", "result": "5.5 × 10^−6"},
      {"measurement": "Frequency of Resistance 16× MIC", "setting": "[3]; E. coli C032, 16× MIC", "result": "6.2 × 10^−7"},
      {"measurement": "Frequency of Resistance 4× MIC", "setting": "[3]; E. coli C036, 4× MIC", "result": "4.4 × 10^−6"},
      {"measurement": "Frequency of Resistance 8× MIC", "setting": "[3]; E. coli C036, 8× MIC", "result": "4.7 × 10^−7"},
      {"measurement": "Frequency of Resistance 16× MIC", "setting": "[3]; E. coli C036, 16× MIC", "result": "1.9 × 10^−9"},
      {"measurement": "Frequency of Resistance 4× MIC", "setting": "[3]; E. coli C037, 4× MIC", "result": "1.0 × 10^−6"},
      {"measurement": "Frequency of Resistance 8× MIC", "setting": "[3]; E. coli C037, 8× MIC", "result": "4.4 × 10^−6"},
      {"measurement": "Frequency of Resistance 16× MIC", "setting": "[3]; E. coli C037, 16× MIC", "result": "1.1 × 10^−7"},
      {"measurement": "Frequency of Resistance 4× MIC", "setting": "[3]; E. coli C294, 4× MIC", "result": "6.6 × 10^−5"},
      {"measurement": "Frequency of Resistance 8× MIC", "setting": "[3]; E. coli C294, 8× MIC", "result": "1.3 × 10^−6"},
      {"measurement": "Frequency of Resistance 16× MIC", "setting": "[3]; E. coli C294, 16× MIC", "result": "<7.2 × 10^−9"},
      {"measurement": "MIC", "setting": "[4]; E. coli ATCC 25922", "result": 0.5, "unit": "mg/L"},
      {"measurement": "MIC", "setting": "[4]; E. coli C032", "result": 0.5, "unit": "mg/L"},
      {"measurement": "MIC", "setting": "[4]; E. coli C036", "result": 0.5, "unit": "mg/L"},
      {"measurement": "MIC", "setting": "[4]; E. coli C037", "result": 4, "unit": "mg/L"},
      {"measurement": "MIC", "setting": "[4]; E. coli C294", "result": 0.5, "unit": "mg/L"},
      {"measurement": "killing activity at 24 h", "setting": "[5]; 24 h, FT4:1 16 μg/mL, fosfomycin 12.8 μg/mL, tobramycin 3.2 μg/mL, mucin, FIG. 4", "result": "re-growth of the bacterial culture"},
      {"measurement": "killing activity", "setting": "[5]; FT4:1 at 4×MIC (16 μg/mL), component weights fosfomycin 12.8 μg/mL, tobramycin 3.2 μg/mL, mucin, FIG. 4", "result": "bacteriostatic killing"},
      {"measurement": "bacterial killing on increasing the concentration", "setting": "[5]; increase from 2 μg/mL to 4 μg/mL (2-fold), FIG. 2", "result": "> 4", "unit": "Log10"},
      {"measurement": "killing activity (bactericidal ≧3-Log10, bacteriostatic ≦2-Log10)", "setting": "[5]; multiples of the MIC, FIG. 1-3", "result": "rapidly bactericidal"},
      {"measurement": "enhancement of bacterial killing in the presence of fosfomycin", "setting": "[5]; tobramycin 3.2 μg/mL in the presence of 12.8 μg/mL fosfomycin, FIG. 4", "result": 3, "unit": "Log10 CFU/mL"},
      {"measurement": "Frequency of Resistance 4× MIC", "setting": "[6]; P. aeruginosa ATCC 27853, 4× MIC", "result": "3.0 × 10^−5"},
      {"measurement": "Frequency of Resistance 8× MIC", "setting": "[6]; P. aeruginosa ATCC 27853, 8× MIC", "result": "2.2 × 10^−7"},
      {"measurement": "Frequency of Resistance 16× MIC", "setting": "[6]; P. aeruginosa ATCC 27853, 16× MIC", "result": "1.6 × 10^−8"},
      {"measurement": "Frequency of Resistance 4× MIC", "setting": "[6]; P. aeruginosa C002, 4× MIC", "result": "1.1 × 10^−5"},
      {"measurement": "Frequency of Resistance 8× MIC", "setting": "[6]; P. aeruginosa C002, 8× MIC", "result": "1.1 × 10^−7"},
      {"measurement": "Frequency of Resistance 16× MIC", "setting": "[6]; P. aeruginosa C002, 16× MIC", "result": "4.4 × 10^−8"},
      {"measurement": "Frequency of Resistance 4× MIC", "setting": "[6]; P. aeruginosa C003, 4× MIC", "result": "4.2 × 10^−5"},
      {"measurement": "Frequency of Resistance 8× MIC", "setting": "[6]; P. aeruginosa C003, 8× MIC", "result": "1.8 × 10^−7"},
      {"measurement": "Frequency of Resistance 16× MIC", "setting": "[6]; P. aeruginosa C003, 16× MIC", "result": "7.2 × 10^−8"},
      {"measurement": "Frequency of Resistance 4× MIC", "setting": "[6]; P. aeruginosa C013, 4× MIC", "result": "1.4 × 10^−6"},
      {"measurement": "Frequency of Resistance 8× MIC", "setting": "[6]; P. aeruginosa C013, 8× MIC", "result": "3.7 × 10^−6"},
      {"measurement": "Frequency of Resistance 16× MIC", "setting": "[6]; P. aeruginosa C013, 16× MIC", "result": "8.2 × 10^−7"},
      {"measurement": "Frequency of Resistance 4× MIC", "setting": "[6]; P. aeruginosa C014, 4× MIC", "result": "1.3 × 10^−6"},
      {"measurement": "Frequency of Resistance 8× MIC", "setting": "[6]; P. aeruginosa C014, 8× MIC", "result": "1.1 × 10^−7"},
      {"measurement": "Frequency of Resistance 16× MIC", "setting": "[6]; P. aeruginosa C014, 16× MIC", "result": "7.9 × 10^−7"},
      {"measurement": "% Inhibition Protein", "setting": "[7]; 0.8 μg/mL", "result": 2, "unit": "%"},
      {"measurement": "time to 50% inhibition (T1/2) of protein synthesis", "setting": "[7]; 1.6 μg/mL (FIG. 5)", "result": "> 3", "unit": "h"},
      {"measurement": "% Inhibition Protein", "setting": "[7]; 1.6 μg/mL", "result": 6, "unit": "%"},
      {"measurement": "% Inhibition Protein", "setting": "[7]; 3.2 μg/mL", "result": 42, "unit": "%"}
    ]}
  ]
}
